{"source": "patent US20010046687A1", "about": "“Method for the enhancement of luminescence intensity from a reaction between adenosine triphosphate (ATP) and a luciferase/luciferin reactant system” (priority 2000, published 2001)", "target": "T1, luciferase (Photinus pyralis, UniProt P08659)", "T1 construct": "purchased Analytical Luminescent Laboratories (ALL), Sparks, Maryland #2005", "T1 sequence (P08659 whole entry)": "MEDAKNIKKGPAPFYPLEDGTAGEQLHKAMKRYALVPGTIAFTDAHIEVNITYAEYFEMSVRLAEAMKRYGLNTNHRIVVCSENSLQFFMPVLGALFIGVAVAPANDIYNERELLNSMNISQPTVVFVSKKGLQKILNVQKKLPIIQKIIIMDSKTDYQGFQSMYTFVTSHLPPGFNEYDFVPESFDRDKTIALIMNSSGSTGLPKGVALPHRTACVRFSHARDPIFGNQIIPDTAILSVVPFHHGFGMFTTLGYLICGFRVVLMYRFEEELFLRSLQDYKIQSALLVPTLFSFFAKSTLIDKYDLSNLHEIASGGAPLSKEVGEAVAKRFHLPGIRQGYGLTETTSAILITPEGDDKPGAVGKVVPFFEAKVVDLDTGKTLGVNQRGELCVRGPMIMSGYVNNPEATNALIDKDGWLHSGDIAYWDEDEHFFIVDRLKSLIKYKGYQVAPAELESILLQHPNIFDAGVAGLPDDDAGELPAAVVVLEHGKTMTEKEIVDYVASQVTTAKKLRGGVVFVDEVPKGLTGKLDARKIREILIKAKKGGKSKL", "test": "luminescence from the reaction between ATP and a luciferase/luciferin reactant system loaded on reagent discs", "assay_type": "biochemical", "description": "FIG. 11 is a plot of relative luminescent intensity for reactant mixtures prepared with (♦) and without (▪) trehalose in the reactant loading solution for use with the device of FIG. 1.\nFIG. 12 is a plot of luminescent intensity as a function of the concentration of trehalose in the reactant solution for use with the device of FIG. 1.\nAs discussed above, the inherent chemical and mechanical stability of the polymeric material is ideally suited for use as a medium on which to load the chemiluminescent reagents for the practice of the present invention. A number of commercial enterprises market luciferin-luciferase reagent kits for use in chemiluminescent reaction assays. One that the inventors have found to be particularly well suited for the practice of the present invention is the “Firelight®” luciferin-luciferase reagent kit provided by Analytical Luminescent Laboratories (ALL) of Sparks, Maryland. […] This provides for a greater intensity of luminescence, and faster reaction kinetics.\nIn the preparation of the reagent discs 48, the reactant concentrate is loaded, preferably drop-wise, onto the Merocel® CF50, obtained in pre-sterilized sheets. The coated sheets are then dried at ambient temperatures under a vacuum, and the reagent discs are cut from the sheets in an appropriate size and shape. Alternatively, discs may be cut first and then loaded with appropriate reagent solution. When loaded in such fashion with the reagent mixture, reagent discs, approximately 6 mm in diameter and approximately 1.5 mm in height, carry approximately 0.5 mg of the dried reactant mixture.\nIt is recognized in the prior art that trehalose will stabilize delicate materials while they are freeze-dried. Freeze drying as a technique was devised as being the only way certain sensitive materials can be handled. Ordinary drying at ambient or elevated temperature and at atmospheric or reduced pressure causes irreversible degradation of very many such substances, so much so that it has been accepted that sensitive proteins must not be dried at ambient temperature. […]", "data": [{"smiles": "OC[C@H]1O[C@H](O[C@H]2O[C@H](CO)[C@@H](O)[C@H](O)[C@H]2O)[C@H](O)[C@@H](O)[C@@H]1O", "note": "[trehalose, a-D-glucopyranosyl-a-D-glucopyranoside]", "values": [{"measurement": "observed luminescent intensities versus the same loading of reagents without the trehalose", "setting": "6 mm×1.5 mm reagent disc, total loading approximately 4 mg including trehalose, FIG. 12", "result": "more than twice"}, {"measurement": "stabilization effect on the chemiluminescent reactant mixture", "setting": "reactant mixtures prepared with and without trehalose in the loading solution, FIG. 11", "result": "measurable stabilization effect"}, {"measurement": "biochemical activity of the luciferase component of the reagent mixture", "setting": "trehalose added to the loading solution at levels approaching its saturation solubility", "result": "up to a doubling, or more"}]}]}
